The source of these data is ChEMBL document CHEMBL2331315, “Target- and mechanism-based therapeutics for neurodegenerative diseases: strength in numbers” (J Med Chem, 2013).

pIC50, pKi: −log10 of the molar value. Non-standard residues stand in square brackets, D forms with d. Residues, ends and D or L forms follow the SMILES beside them. dArg(NO2) = N=C(NCCC[C@@H](N)C(=O)O)N[N+](=O)[O-]

The species named for test [1] is Homo sapiens. Put plainly: Selectivity ratio of IC50 for human eNOS to IC50 for human nNOS.
For test [2], the target named is Nitric oxide synthase 1 (Homo sapiens, UniProt P29475). Put plainly: Inhibition of human nNOS.
For test [3], the target named is Nitric oxide synthase, inducible (Homo sapiens, UniProt P35228). Put plainly: Inhibition of human iNOS.
Another test deals with T1, Nitric oxide synthase 3 (Homo sapiens, UniProt P29474).
T1 sequence (P29474 whole entry): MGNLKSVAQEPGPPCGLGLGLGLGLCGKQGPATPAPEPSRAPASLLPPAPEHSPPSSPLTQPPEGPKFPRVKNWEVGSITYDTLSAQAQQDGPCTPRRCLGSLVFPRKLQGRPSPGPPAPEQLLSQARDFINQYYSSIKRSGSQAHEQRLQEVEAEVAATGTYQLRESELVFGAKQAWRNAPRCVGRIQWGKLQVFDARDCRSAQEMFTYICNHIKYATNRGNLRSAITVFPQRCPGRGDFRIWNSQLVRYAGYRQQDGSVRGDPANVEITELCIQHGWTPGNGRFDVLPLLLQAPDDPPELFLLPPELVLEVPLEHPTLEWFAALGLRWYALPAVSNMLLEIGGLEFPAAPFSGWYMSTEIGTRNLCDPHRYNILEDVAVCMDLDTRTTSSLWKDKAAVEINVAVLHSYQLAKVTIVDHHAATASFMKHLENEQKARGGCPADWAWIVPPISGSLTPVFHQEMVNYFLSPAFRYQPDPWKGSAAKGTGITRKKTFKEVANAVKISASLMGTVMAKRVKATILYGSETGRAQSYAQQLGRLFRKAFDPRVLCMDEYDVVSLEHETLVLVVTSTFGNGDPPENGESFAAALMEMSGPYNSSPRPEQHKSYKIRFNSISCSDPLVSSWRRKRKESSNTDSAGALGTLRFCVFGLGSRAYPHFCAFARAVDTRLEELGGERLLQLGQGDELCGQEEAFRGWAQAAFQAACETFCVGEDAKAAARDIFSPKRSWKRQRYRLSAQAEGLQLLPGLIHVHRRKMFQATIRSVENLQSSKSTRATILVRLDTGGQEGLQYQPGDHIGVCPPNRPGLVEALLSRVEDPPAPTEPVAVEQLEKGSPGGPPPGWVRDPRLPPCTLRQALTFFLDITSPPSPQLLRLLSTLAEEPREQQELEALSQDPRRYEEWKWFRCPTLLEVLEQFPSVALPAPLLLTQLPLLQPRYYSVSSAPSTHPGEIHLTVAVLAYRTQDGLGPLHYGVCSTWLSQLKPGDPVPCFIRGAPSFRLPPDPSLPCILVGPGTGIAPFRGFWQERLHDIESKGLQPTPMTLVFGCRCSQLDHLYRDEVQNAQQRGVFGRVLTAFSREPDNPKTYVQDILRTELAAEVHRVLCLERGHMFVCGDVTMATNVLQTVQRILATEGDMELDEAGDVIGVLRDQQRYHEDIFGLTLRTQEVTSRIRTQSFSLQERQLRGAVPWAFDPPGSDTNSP
Put plainly: Inhibition of human eNOS.

A further test is filed under the species Mus musculus. Put plainly: Neuroprotective activity in amyotrophic lateral sclerosis mouse model expressing human SOD1 G93A mutant assessed as increase in life span relative to control. In kind it is functional.
The nature of test [4]: Inhibition of bovine nNOS. Also on record: species or system Bos taurus.
Test [5] in a line: Selectivity ratio of Ki for bovine eNOS to Ki for rat nNOS.
Test [6] can be described thus: Selectivity ratio of Ki for mouse iNOS to Ki for rat nNOS.
For test [7], the species on record is Homo sapiens. Put plainly: Selectivity ratio of IC50 for NTD-deleted GluN1/NTD-deleted GluN2D receptor (unknown origin) to IC50 for NTD-deleted GluN1/NTD-deleted GluN2A receptor (unknown origin).
Test [8] in a line: Neuroprotective activity in rat Cortical neuron assessed as protection from glutamate-induced neurotoxicity treated after glutamate-challenge by lactate dehydrogenase assay. In kind it is functional. The conditions noted are these: cortical neurone.
For a further test, the target named is Huntingtin (Homo sapiens, UniProt P42858). Put plainly: Inhibition of HD exon 1 fusion protein with 51 glutamine residues (unknown origin) aggregation expressed in Escherichia coli SURE after 16 hrs by Western blotting analysis. (In general: A western blot detects proteins with antibodies after separation by electrophoresis.)
Test [9] concerns the target Nitric oxide synthase 1 (Rattus norvegicus, UniProt P29476).
For test [10], the species on record is Homo sapiens. Put plainly: Selectivity ratio of IC50 for recombinant GluN2A/GluN2D receptor (unknown origin) to IC50 for GluN2C/GluN2D (unknown origin) receptor.
Test [11] has as its target Microtubule-associated protein tau (Homo sapiens, UniProt P10636). Put plainly: Inhibition of recombinant tau (unknown origin) aggregation.
Test [12] in a line: Inhibition of NMDA receptor in mouse medium spiny neurons by whole cell patch clamp assay. (The patch-clamp technique gives a direct electrical read-out from membranes.)
The target of a further test is L-type calcium channel (Mus musculus, UniProt Q01815+Q02789+Q99246+Q9JIS7). Put plainly: Inhibition of Voltage-dependent L-type calcium channel in mouse medium spiny neurons by whole cell patch clamp assay.
Another test concerns Canis familiaris. Put plainly: Antialzheimer activity in Beagle dog assessed as reduction in CSF amyloid beta level at 5 mg/kg, po after 9 hrs relative to control. It counts as functional, Canis lupus familiaris. The arrangement: scale not given: the % may be the effect or the level left.
In test [13] the test system is Homo sapiens. Put plainly: Neuroprotective activity in Parkinson disease patient assessed as reduction of L-DOPA-induced dyskinesia administered as infusion treated prior to L-DOPA-challenge relative to control. It counts as functional. Also on record: scale not given: the % may be the effect or the level left.

Chain of Nitric oxide synthase 1 (Homo sapiens, UniProt P29475) (P29475 whole entry): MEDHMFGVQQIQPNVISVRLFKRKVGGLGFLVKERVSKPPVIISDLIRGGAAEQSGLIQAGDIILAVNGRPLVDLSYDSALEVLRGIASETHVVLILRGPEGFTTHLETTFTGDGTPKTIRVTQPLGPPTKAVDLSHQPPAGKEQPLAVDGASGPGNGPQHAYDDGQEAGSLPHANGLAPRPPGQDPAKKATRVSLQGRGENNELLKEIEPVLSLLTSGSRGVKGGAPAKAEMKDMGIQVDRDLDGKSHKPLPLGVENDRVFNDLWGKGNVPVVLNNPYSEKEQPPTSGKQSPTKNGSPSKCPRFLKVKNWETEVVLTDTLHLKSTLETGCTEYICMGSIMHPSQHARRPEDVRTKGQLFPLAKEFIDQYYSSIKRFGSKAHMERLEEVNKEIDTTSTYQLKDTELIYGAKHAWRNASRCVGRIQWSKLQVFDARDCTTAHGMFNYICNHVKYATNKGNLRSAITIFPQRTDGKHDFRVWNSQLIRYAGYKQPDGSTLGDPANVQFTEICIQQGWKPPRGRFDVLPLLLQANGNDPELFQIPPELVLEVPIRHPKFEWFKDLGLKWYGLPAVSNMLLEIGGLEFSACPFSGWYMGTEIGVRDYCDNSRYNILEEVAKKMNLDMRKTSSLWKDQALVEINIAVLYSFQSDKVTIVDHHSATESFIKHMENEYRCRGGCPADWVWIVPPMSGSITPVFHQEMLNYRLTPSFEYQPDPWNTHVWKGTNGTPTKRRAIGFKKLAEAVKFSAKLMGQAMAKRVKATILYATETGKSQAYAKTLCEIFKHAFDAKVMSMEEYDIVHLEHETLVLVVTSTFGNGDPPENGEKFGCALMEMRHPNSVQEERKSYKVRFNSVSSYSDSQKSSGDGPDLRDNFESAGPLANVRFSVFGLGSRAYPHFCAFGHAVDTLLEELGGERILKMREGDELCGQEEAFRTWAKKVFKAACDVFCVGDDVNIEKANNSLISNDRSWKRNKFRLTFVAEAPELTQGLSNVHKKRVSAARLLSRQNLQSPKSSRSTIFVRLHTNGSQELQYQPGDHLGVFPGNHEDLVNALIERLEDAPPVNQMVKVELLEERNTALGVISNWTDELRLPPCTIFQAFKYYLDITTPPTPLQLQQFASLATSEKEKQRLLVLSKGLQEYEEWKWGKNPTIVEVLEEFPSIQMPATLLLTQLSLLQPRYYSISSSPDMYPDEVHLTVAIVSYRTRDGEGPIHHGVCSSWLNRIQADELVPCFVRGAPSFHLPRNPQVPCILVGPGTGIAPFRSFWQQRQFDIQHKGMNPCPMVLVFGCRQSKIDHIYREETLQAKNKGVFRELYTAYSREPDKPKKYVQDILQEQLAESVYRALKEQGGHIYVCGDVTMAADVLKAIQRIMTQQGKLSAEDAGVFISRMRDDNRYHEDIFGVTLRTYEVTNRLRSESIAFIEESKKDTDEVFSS
Chain of Microtubule-associated protein tau (P10636 whole entry): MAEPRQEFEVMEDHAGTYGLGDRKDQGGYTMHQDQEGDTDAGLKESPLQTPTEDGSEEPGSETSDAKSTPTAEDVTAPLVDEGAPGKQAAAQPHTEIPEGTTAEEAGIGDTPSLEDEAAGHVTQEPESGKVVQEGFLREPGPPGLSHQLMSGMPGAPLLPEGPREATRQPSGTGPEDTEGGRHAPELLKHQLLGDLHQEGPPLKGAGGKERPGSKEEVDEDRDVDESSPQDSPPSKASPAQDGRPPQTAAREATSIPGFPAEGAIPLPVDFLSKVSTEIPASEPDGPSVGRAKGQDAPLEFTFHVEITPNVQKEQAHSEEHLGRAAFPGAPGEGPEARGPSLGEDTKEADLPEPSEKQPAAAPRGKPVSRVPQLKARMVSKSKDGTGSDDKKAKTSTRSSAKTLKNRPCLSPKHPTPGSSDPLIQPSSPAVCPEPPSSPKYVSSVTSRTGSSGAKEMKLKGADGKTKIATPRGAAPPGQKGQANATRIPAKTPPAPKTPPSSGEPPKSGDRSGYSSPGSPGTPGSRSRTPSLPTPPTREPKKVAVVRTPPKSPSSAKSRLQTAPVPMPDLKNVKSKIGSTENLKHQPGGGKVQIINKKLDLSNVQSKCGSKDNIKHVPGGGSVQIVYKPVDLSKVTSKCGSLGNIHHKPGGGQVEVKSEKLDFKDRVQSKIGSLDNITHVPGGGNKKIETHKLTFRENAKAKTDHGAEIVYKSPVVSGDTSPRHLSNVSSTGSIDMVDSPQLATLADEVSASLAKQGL
Chain of Nitric oxide synthase, inducible (P35228 whole entry): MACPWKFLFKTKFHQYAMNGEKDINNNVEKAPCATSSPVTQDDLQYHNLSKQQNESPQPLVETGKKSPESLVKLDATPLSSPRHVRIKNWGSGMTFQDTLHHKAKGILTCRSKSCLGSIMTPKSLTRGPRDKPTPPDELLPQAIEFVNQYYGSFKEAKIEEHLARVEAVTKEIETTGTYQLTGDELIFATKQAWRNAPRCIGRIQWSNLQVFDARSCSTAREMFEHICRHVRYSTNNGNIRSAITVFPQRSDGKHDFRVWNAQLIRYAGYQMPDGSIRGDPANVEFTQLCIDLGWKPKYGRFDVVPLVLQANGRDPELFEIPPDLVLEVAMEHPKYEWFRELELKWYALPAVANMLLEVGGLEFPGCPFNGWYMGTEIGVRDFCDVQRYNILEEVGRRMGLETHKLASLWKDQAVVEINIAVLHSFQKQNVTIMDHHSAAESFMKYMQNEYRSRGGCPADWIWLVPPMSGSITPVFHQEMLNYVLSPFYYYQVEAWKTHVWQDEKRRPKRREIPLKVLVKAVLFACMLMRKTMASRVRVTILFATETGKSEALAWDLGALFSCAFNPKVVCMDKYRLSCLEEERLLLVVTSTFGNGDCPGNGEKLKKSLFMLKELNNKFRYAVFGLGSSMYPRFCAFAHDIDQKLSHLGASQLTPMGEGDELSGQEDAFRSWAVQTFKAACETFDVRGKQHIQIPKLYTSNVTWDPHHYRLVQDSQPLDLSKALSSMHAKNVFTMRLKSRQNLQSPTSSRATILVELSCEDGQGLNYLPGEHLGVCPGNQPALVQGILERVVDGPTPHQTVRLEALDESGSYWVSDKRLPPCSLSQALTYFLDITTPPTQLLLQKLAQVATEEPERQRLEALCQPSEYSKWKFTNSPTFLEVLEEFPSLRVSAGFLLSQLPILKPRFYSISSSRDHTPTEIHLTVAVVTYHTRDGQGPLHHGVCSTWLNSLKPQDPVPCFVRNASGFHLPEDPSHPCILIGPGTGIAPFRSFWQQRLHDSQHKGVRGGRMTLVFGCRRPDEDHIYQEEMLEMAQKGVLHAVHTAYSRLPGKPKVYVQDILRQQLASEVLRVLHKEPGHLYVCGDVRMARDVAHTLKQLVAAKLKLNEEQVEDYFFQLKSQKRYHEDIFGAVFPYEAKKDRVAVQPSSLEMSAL
Chain of Nitric oxide synthase 1 (Rattus norvegicus, UniProt P29476) (P29476 whole entry): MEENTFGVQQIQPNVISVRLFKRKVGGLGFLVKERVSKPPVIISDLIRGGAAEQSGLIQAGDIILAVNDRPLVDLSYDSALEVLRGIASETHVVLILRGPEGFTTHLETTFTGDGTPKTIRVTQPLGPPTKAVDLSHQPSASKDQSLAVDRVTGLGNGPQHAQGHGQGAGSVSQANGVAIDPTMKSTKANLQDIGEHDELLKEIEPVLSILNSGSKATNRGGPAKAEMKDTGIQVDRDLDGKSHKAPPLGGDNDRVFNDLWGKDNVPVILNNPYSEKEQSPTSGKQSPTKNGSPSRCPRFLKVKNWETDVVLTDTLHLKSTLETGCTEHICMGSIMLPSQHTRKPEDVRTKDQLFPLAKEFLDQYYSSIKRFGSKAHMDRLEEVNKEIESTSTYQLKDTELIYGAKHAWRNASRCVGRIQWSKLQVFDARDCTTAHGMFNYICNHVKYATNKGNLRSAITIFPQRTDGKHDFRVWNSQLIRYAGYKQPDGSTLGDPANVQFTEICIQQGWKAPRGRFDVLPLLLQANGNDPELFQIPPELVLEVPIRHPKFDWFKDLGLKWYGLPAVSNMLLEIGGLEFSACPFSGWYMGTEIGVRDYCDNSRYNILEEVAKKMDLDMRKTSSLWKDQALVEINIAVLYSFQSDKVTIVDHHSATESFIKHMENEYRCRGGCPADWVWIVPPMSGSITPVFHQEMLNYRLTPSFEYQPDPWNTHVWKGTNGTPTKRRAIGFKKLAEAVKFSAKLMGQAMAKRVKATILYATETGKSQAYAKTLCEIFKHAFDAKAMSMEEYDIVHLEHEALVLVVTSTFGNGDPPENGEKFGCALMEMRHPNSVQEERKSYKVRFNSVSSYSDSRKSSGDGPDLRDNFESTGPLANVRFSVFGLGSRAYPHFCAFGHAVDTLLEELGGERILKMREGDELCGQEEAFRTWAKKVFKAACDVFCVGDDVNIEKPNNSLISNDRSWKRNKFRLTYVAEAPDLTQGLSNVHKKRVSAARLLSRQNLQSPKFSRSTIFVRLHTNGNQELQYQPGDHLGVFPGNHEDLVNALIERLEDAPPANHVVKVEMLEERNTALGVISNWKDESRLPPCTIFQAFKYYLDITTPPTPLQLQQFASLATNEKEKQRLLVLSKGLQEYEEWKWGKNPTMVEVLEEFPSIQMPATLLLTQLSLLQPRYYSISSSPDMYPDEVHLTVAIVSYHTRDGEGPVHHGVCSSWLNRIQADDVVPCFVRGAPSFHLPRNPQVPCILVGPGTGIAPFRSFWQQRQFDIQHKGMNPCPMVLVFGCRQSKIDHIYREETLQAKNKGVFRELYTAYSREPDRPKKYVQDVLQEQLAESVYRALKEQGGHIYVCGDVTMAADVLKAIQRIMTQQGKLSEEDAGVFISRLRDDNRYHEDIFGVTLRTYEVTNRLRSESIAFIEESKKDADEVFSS

Take `CN(C)CCOc1ccc(-c2cccc(N)n2)c2c1CCCC2`: in the test filed under Homo sapiens [1], the Ratio IC50 is 50. This compound also had a pIC50 against Nitric oxide synthase 1 [2] of 7.15.
`NC(=Nc1ccc(CCNCCc2cccc(Cl)c2)cc1)c1cccs1`: the pIC50 is 7.46 against Nitric oxide synthase 1 [2], 5.30 in test [3] and 5.46 against Nitric oxide synthase 3.
With `[O-][n+]1cccc(/C(Cl)=N/OC[C@H](O)CN2CCCCC2)c1` [ARIMOCLOMOL], in the test listed under Mus musculus, the Activity is recorded as 22%.
Regarding `C=CNC(=N)NCCC[C@H](N)C(=O)O`, the pKi in test [4] is 6.70. Moreover, the Ratio Ki in test [5] is 35; in test [6] it was 11.
Take `O=C(O)c1cc2cc(Br)ccc2oc1=O`: the Ratio IC50 in the test listed under Homo sapiens [7] amounted to 23.
For the compound `CC(C(O)c1ccc(O)cc1)N1CCC(Cc2ccccc2)CC1` (stereo not given) [IFENPRODIL], the pIC50 in test [8] is 5.46.
In the case of `N=C(NCCC[C@H](N)C(=O)O)N[N+](=O)[O-]` [NITROARGININE], the Ratio Ki in test [5] worked out at 11; in test [6], 293.
`COC(=O)c1ccc(C(=O)Nc2nc3ccc(C(=O)Nc4ccccc4)cc3s2)cc1` gave a negative-log IC50 (pIC50) on Huntingtin of 5.92.
In the case of `N/N=C(\N)NCCC[C@H](N)C(=O)O`, the pKi in test [4] is 6.52. Besides, the Ratio Ki in test [5] stood at 8.3; in test [6], 10.
`C[C@@H](CN1CCC(Cc2ccccc2)CC1)[C@@H](O)c1ccc(O)cc1`: the pIC50 in test [8] was 6.40.
Consider `N=C(Nc1ccc(CCNCCc2cccc(Cl)c2)cc1)c1cccs1`, for which the Ratio IC50 in the test filed under Homo sapiens [1] is 100.
In the case of `COC(=O)[C@@H](CCCNC(=N)N[N+](=O)[O-])NC(=O)[C@H](N)Cc1ccccc1` (H-[dF]-[dArg(NO2)]-OMe), the Ratio Ki in test [5] came to 2.6; in test [6], 1800. The pKi on Nitric oxide synthase 1 [9] is 5.72.
For the compound `Cc1ccc2[nH]c(=O)c(C3=NN(C(=O)CCC(=O)O)C(c4ccc(Br)cc4)C3)c(-c3ccccc3)c2c1` (stereo not given), in the test listed under Homo sapiens [10], the Ratio IC50 was above 50.
Regarding `CC(=O)CN1CCN(CCc2ccc(-c3cccc(N)n3)cc2)CC1`, the Ratio IC50 in the test filed under Homo sapiens [1] was 6. This compound gave a pIC50 against Nitric oxide synthase 1 [2] of 6.85.
With `Cc1cc2nc3ccc(N(C)C)cc3[s+]c2cc1N` [TOLONIUM CHLORIDE], the pKi in [11] was 7.16.
Take `Cc1ccc2c(c1)c1c(n2CCc2ccc(C)nc2)CCN(C)C1` [LATREPIRDINE]: the pIC50 in test [12] is 5.00. Moreover, on L-type calcium channel, the IC50 was 50 µM.
In the case of `C[C@@]1(c2cc(-c3cncnc3)c(F)cc2F)CCSC(N)=N1` [LY-2811376], in the test on Canis familiaris, the Activity amounted to 70%.
Turning to `C[C@@H]([C@@H](O)c1ccc(O)cc1)N1CCC(O)(c2ccccc2)CC1` [TRAXOPRODIL], the Activity with Homo sapiens [13] was 30%.

The term pIC50 denotes −log10 of the IC50, conventionally taken in molar units. The pKi is the Ki on a negative log10 scale, so that one unit is a factor of ten. In general, IC50 refers to the midpoint of a concentration-inhibition curve.
